Measured values as given in patent US20240415914A1, “Water Dispersible Cannabinoid Compositions” (priority 2021, published 2024).

Test: Stability of cannabinoid and Vitamin E components of Beverage 1 (AB White) stored at 8° C. and 21-25° C., LCMSMS over 570 days
Type: physicochemical
Settings: for Chemical stability over the entire period (result in words): AB White, 570 days; for Stability in AB White, 8° C. (content by LCMSMS): beverage stored at 8° C.; for Stability in AB White, 21-25° C. (content by LCMSMS): beverage stored at 21-25° C.
Experimental: The LCMSMS was calibrated for 0-1000 ng/ml cannabinoids with the same resin material used in the preparation of the concentrates. At each time period, 100 ml of beverage was diluted with 10 ml of methanol and injected into the LCMSMS for analysis.

CCCCCc1cc(O)c2c(c1)OC(C)(C)[C@@H]1CCC(C)=C[C@@H]21 [D9 THC, delta-9-tetrahydrocannabinol, reference compound]
Chemical stability over the entire period (result in words) (stored at 8° C.): high degree of stability
Chemical stability over the entire period (result in words) (stored at 21-25° C.): high degree of stability
Stability in AB White, 8° C. (content by LCMSMS) (day 0): 12.2 µg/mL
Stability in AB White, 8° C. (content by LCMSMS) (day 1): 12.20 µg/mL
Stability in AB White, 8° C. (content by LCMSMS) (day 2): 11.91 µg/mL
Stability in AB White, 8° C. (content by LCMSMS) (day 3): 12.25 µg/mL
Stability in AB White, 8° C. (content by LCMSMS) (day 5): 12.11 µg/mL
Stability in AB White, 8° C. (content by LCMSMS) (day 8): 11.83 µg/mL
Stability in AB White, 8° C. (content by LCMSMS) (day 9): 12.14 µg/mL
Stability in AB White, 8° C. (content by LCMSMS) (day 10): 12.07 µg/mL
Stability in AB White, 8° C. (content by LCMSMS) (day 11): 11.83 µg/mL
Stability in AB White, 8° C. (content by LCMSMS) (day 12): 11.88 µg/mL
Stability in AB White, 8° C. (content by LCMSMS) (day 15): 12.08 µg/mL
Stability in AB White, 8° C. (content by LCMSMS) (day 16): 12.18 µg/mL
Stability in AB White, 8° C. (content by LCMSMS) (day 17): 12.05 µg/mL
Stability in AB White, 8° C. (content by LCMSMS) (day 18): 12.00 µg/mL
Stability in AB White, 8° C. (content by LCMSMS) (day 19): 12.11 µg/mL
Stability in AB White, 8° C. (content by LCMSMS) (day 22): 11.97 µg/mL
Stability in AB White, 8° C. (content by LCMSMS) (day 23): 12.03 µg/mL
Stability in AB White, 8° C. (content by LCMSMS) (day 24): 11.87 µg/mL
Stability in AB White, 8° C. (content by LCMSMS) (day 25): 11.99 µg/mL
Stability in AB White, 8° C. (content by LCMSMS) (day 26): 11.97 µg/mL
Stability in AB White, 8° C. (content by LCMSMS) (day 29): 12.25 µg/mL
Stability in AB White, 8° C. (content by LCMSMS) (day 30): 12.05 µg/mL
Stability in AB White, 8° C. (content by LCMSMS) (day 60): 11.77 µg/mL
Stability in AB White, 8° C. (content by LCMSMS) (day 90): 11.92 µg/mL
Stability in AB White, 8° C. (content by LCMSMS) (day 120): 11.79 µg/mL
Stability in AB White, 8° C. (content by LCMSMS) (day 150): 12.07 µg/mL
Stability in AB White, 8° C. (content by LCMSMS) (day 180): 11.66 µg/mL
Stability in AB White, 8° C. (content by LCMSMS) (day 210): 11.79 µg/mL
Stability in AB White, 8° C. (content by LCMSMS) (day 240): 11.70 µg/mL
Stability in AB White, 8° C. (content by LCMSMS) (day 270): 11.98 µg/mL
Stability in AB White, 8° C. (content by LCMSMS) (day 300): 11.70 µg/mL
Stability in AB White, 8° C. (content by LCMSMS) (day 330): 11.68 µg/mL
Stability in AB White, 8° C. (content by LCMSMS) (day 360): 11.88 µg/mL
Stability in AB White, 8° C. (content by LCMSMS) (day 390): 11.85 µg/mL
Stability in AB White, 8° C. (content by LCMSMS) (day 420): 11.77 µg/mL
Stability in AB White, 8° C. (content by LCMSMS) (day 450): 11.80 µg/mL
Stability in AB White, 8° C. (content by LCMSMS) (day 480): 11.60 µg/mL
Stability in AB White, 8° C. (content by LCMSMS) (day 510): 11.33 µg/mL
Stability in AB White, 8° C. (content by LCMSMS) (day 540): 11.27 µg/mL
Stability in AB White, 8° C. (content by LCMSMS) (day 570): 11.21 µg/mL
Stability in AB White, 21-25° C. (content by LCMSMS) (day 0): 12.2 µg/mL
Stability in AB White, 21-25° C. (content by LCMSMS) (day 1): 11.8 µg/mL
Stability in AB White, 21-25° C. (content by LCMSMS) (day 2): 12.0 µg/mL
Stability in AB White, 21-25° C. (content by LCMSMS) (day 3): 11.9 µg/mL
Stability in AB White, 21-25° C. (content by LCMSMS) (day 5): 12.1 µg/mL
Stability in AB White, 21-25° C. (content by LCMSMS) (day 8): 12.3 µg/mL
Stability in AB White, 21-25° C. (content by LCMSMS) (day 9): 11.8 µg/mL
Stability in AB White, 21-25° C. (content by LCMSMS) (day 10): 11.7 µg/mL
Stability in AB White, 21-25° C. (content by LCMSMS) (day 11): 12.1 µg/mL
Stability in AB White, 21-25° C. (content by LCMSMS) (day 12): 11.9 µg/mL
Stability in AB White, 21-25° C. (content by LCMSMS) (day 15): 12.1 µg/mL
Stability in AB White, 21-25° C. (content by LCMSMS) (day 16): 12.1 µg/mL
Stability in AB White, 21-25° C. (content by LCMSMS) (day 17): 11.9 µg/mL
Stability in AB White, 21-25° C. (content by LCMSMS) (day 18): 11.8 µg/mL
Stability in AB White, 21-25° C. (content by LCMSMS) (day 19): 12.3 µg/mL
Stability in AB White, 21-25° C. (content by LCMSMS) (day 22): 11.9 µg/mL
Stability in AB White, 21-25° C. (content by LCMSMS) (day 23): 12.0 µg/mL
Stability in AB White, 21-25° C. (content by LCMSMS) (day 24): 12.1 µg/mL
Stability in AB White, 21-25° C. (content by LCMSMS) (day 25): 12.3 µg/mL
Stability in AB White, 21-25° C. (content by LCMSMS) (day 26): 12.1 µg/mL
Stability in AB White, 21-25° C. (content by LCMSMS) (day 29): 11.9 µg/mL
Stability in AB White, 21-25° C. (content by LCMSMS) (day 30): 11.9 µg/mL
Stability in AB White, 21-25° C. (content by LCMSMS) (day 60): 11.9 µg/mL
Stability in AB White, 21-25° C. (content by LCMSMS) (day 90): 12.0 µg/mL
Stability in AB White, 21-25° C. (content by LCMSMS) (day 120): 11.7 µg/mL
Stability in AB White, 21-25° C. (content by LCMSMS) (day 150): 11.7 µg/mL
Stability in AB White, 21-25° C. (content by LCMSMS) (day 180): 11.9 µg/mL
Stability in AB White, 21-25° C. (content by LCMSMS) (day 210): 11.4 µg/mL
Stability in AB White, 21-25° C. (content by LCMSMS) (day 240): 11.7 µg/mL
Stability in AB White, 21-25° C. (content by LCMSMS) (day 270): 11.9 µg/mL
Stability in AB White, 21-25° C. (content by LCMSMS) (day 300): 12.0 µg/mL
Stability in AB White, 21-25° C. (content by LCMSMS) (day 330): 11.4 µg/mL
Stability in AB White, 21-25° C. (content by LCMSMS) (day 360): 11.7 µg/mL
Stability in AB White, 21-25° C. (content by LCMSMS) (day 390): 11.4 µg/mL
Stability in AB White, 21-25° C. (content by LCMSMS) (day 420): 11.7 µg/mL
Stability in AB White, 21-25° C. (content by LCMSMS) (day 450): 11.7 µg/mL
Stability in AB White, 21-25° C. (content by LCMSMS) (day 480): 11.2 µg/mL
Stability in AB White, 21-25° C. (content by LCMSMS) (day 510): 11.2 µg/mL
Stability in AB White, 21-25° C. (content by LCMSMS) (day 540): 11.2 µg/mL
Stability in AB White, 21-25° C. (content by LCMSMS) (day 570): 11.2 µg/mL
